This test can be described thus: Inhibition of recombinant human SSAO.
The IC50 is the concentration at which inhibition is half-maximal. Turning to `Cc1ccccc1OC/C(=C/F)CN`, the IC50 is 288 nM. As for `NCC(=CF)COc1ccccc1`, the figure is 6 nM; as for `NC/C(=C\F)COc1ccccc1`, 19 nM.

(Values after BindingDB's records for PubMed 35973549 (Pharmaxis, 2022).)
